Test system: mice
Experiment: acute toxicity (LD50)
Assay type: in vivo
Settings: p.o. in mice

O=C(O)Cc1ccc2c(c1)sc1ccc(Cl)cc12 [8-chloro-dibenzothiophene-3-acetic acid]
LD50: 775 mg
